From patent US9302981B2, “Synthesis, methods of using, and compositions of cycloalkylmethylamines” (Reviva Pharmaceuticals, Inc., priority 2006, dated 2016) come the findings set out here.

In test [1] the target is human recombinant dopamine transporter (DAT) (Homo sapiens (Human), UniProt Q01959). Put plainly: Radioligand binding assay, dopamine transporter (MDS Pharma). Particulars: for nH (Hill coefficient): DAT, slope of the competitive binding curve. The method, then:
(§1) The monoamine transporters inhibitory activities of selected compounds (54b and 54d) are reported herein. The compounds were evaluated at MDS Pharma services (22011 Drive SE, Bothell, Wash. 98021, USA) using well established radioligand binding assays protocols (Galli, A. et al., J. Exp. Biol. 1995, 198, 2197-2212; Giros, B. et al., Trends Pharmcol. Sci. 1993, 14, 43-49; Gu, H. et al., J. Biol. Chem. 1994, 269(10), 7124-7130; Shearman, L. P. et al, Am. J. Physiol., 1998, 275 (6 Pt 1), C1621-1629; Wolf, W. A. et al., J. Biol. Chem. 1992, 267(29), 20820-20825). The human recombinant transporter proteins dopamine (DAT), norepinephrine (NET) and serotonin (SERT) were selected for the in vitro assays. The CHO-K1 cells expressed with human recombinant dopamine transporter (DAT) (MDS catalog 220320) was used for evaluating the dopamine transporter inhibitory activity. Whereas, MDCK cells expressed with human recombinant transporters norepinephrine (NET) (MDS catalog no. 204410) and serotonin (SERT) (MDS catalog no. 274030) were used for evaluating the norepinephrine transporter (NET) and serotonin transporter (SERT) inhibitory activities, respectively. The radioligand binding assays were carried out at four different test concentrations and the test concentrations were 1 nM, 10 nM, 0.1 μM, and 1 μM.
(§2) The assays were carried out in duplicates and the quantitative data are reported as IC50, Ki, and nH. Where presented, IC50 values were determined by a non-linear, least squares regression analysis using MathIQ™ (ID Business Solutions Ltd. UK). […] Where presented, the Hill coefficient (nH), defining the slope of the competitive binding curve, was calculated using MathIQ™.

In test [2] the target is human recombinant norepinephrine transporter (NET) (Homo sapiens (Human), UniProt P23975). Put plainly: Radioligand binding assay, norepinephrine transporter (MDS Pharma). As to conditions: for nH (Hill coefficient): NET, slope of the competitive binding curve. The method, then: The human recombinant transporter proteins dopamine (DAT), norepinephrine (NET) and serotonin (SERT) were selected for the in vitro assays. […] The radioligand binding assays were carried out at four different test concentrations and the test concentrations were 1 nM, 10 nM, 0.1 μM, and 1 μM.
human recombinant norepinephrine transporter (NET), sequence (P23975 whole entry): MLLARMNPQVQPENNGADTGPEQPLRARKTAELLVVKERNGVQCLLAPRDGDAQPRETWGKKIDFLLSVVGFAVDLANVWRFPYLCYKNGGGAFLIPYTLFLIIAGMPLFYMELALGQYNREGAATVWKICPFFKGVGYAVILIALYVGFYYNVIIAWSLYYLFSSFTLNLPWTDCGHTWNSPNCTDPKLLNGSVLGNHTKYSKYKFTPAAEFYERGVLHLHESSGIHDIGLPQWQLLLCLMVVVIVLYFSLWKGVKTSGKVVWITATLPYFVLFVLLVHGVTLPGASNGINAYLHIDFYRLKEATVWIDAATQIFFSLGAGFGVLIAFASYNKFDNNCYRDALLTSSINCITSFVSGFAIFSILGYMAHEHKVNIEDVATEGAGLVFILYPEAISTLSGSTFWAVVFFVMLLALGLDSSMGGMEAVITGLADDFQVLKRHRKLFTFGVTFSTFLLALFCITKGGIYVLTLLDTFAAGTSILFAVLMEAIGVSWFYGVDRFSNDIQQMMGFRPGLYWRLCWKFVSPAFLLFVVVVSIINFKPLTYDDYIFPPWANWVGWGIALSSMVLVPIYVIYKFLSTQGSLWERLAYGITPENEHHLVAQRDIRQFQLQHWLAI
as §2

The target in test [3] is human recombinant serotonin transporter (SERT) (Homo sapiens (Human), UniProt P31645). Put plainly: Radioligand binding assay, serotonin transporter (MDS Pharma). Particulars: for nH (Hill coefficient): SERT, slope of the competitive binding curve. As for the experimental part: as §1, §2

With `CCOC(=O)C(CC)NC(CC(C)C)C1(c2ccc(Cl)cc2)CCC1` (stereo not drawn) [Compound 54b, Ethyl 2-(1-(1-(4-chlorophenyl)cyclobutyl)-3-methylbutylamino]butanoate], in test [1], the concentration for half-maximal inhibition (IC50) (as a rule, the point on the concentration scale where inhibition reaches its midpoint) amounted to 56.9 nM; the Ki (as a rule, the dissociation constant of the complex between target and ligand, obtained from inhibition or displacement) was 45.2 nM; the “nH (Hill coefficient)” value came to 0.826. Besides, in test [2], the half-inhibitory concentration (IC50) amounted to 121 nM, the Ki was determined as 120 nM and the “nH (Hill coefficient)” value is recorded as 0.832. In test [3], the IC50 stood at 140 nM, the Ki was 22.8 nM and the “nH (Hill coefficient)” value is recorded as 0.677.

As for `CCC(NC(CC(C)C)C1(c2ccc(Cl)cc2)CCC1)C(=O)OCC(C)C` (stereo not drawn) [Compound 54d, Isobutyl 2-(1-(1-(4-chlorophenyl)cyclobutyl)-3-methylbutylamino]butanoate], in test [1], the 50% inhibitory concentration (IC50) worked out at 370 nM, the Ki came out at 294 nM and the “nH (Hill coefficient)” value stood at 0.943. In test [2], the IC50 was found to be 182 nM, the inhibition constant Ki came to 180 nM and the “nH (Hill coefficient)” value turned out to be 1.04. In addition, in test [3], the IC50 was determined as 415 nM, the inhibitory constant (Ki) came out at 67.6 nM and the “nH (Hill coefficient)” value worked out at 0.578.
